Laboratory results: US20240109864A1, “SUBSTITUTED PYRAZOLYL PIPERIDINE CARBOXYLIC ACIDS” (BAYER AKTIENGESELLSCHAFT, priority 2020, published 2024)
Counter-ions that a name gives are not always drawn.

Target: T1, recombinant guanylate cyclase reporter cell line (Rattus norvegicus, UniProt P20595)
T1 construct: expressed in transfected cells
T1 sequence (P20595 1-619): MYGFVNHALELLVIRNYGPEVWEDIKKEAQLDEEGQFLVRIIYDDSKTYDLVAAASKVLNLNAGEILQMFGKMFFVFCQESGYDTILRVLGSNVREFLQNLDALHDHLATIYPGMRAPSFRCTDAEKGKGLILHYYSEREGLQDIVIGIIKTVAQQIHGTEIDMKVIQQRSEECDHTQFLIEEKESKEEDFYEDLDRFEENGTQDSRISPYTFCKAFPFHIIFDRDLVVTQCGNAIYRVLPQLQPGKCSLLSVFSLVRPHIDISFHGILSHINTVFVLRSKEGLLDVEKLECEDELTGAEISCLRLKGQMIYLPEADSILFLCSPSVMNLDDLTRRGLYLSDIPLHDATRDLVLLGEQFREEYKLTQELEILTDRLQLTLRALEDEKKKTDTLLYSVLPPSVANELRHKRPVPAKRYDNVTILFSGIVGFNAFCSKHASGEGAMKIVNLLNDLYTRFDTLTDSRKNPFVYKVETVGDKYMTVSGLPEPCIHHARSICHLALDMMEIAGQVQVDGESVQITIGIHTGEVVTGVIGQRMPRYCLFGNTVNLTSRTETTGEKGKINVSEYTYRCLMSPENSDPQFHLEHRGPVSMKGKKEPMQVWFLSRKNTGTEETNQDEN
T1 sequence (P19686 1-690 partner): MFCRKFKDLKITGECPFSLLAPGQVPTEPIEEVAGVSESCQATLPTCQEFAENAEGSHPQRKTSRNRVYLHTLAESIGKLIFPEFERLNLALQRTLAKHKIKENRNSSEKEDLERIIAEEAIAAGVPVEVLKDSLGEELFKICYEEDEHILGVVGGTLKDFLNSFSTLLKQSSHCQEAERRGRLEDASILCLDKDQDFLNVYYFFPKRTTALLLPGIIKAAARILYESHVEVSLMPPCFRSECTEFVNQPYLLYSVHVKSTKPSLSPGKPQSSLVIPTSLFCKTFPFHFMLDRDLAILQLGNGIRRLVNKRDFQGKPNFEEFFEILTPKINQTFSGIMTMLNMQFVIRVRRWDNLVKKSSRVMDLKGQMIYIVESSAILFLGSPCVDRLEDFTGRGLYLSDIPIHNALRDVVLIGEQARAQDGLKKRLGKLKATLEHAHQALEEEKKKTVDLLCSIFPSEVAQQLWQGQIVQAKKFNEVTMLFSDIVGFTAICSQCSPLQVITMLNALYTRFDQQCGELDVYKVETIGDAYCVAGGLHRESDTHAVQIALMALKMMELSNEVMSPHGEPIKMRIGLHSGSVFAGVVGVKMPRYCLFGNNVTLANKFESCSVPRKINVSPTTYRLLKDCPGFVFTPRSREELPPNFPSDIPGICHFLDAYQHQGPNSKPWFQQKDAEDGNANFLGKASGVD
Experiment: Effect on a recombinant guanylate cyclase reporter cell line
Format: cell-based
Settings: in some cases mean values from individual determinations; for MEC: MEC = minimum effective concentration; for EC50: half maximal effective concentration
Description: The cellular activity of the compounds according to the invention was determined using a recombinant guanylate cyclase reporter cell line, as described in F. Wunder et al., Anal. Biochem. 339, 104-112 (2005).

| SMILES | MEC [nM] | EC50 [nM] |
| --- | --- | --- |
| CCOC(=O)N1CCN(c2ccc(-c3ccc(Cl)cc3N3CCCC(n4ncc(C(=O)O)c4C(F)(F)F)C3)cc2)CC1 (single isomer, unassigned) [Example 55, 1-[1-[5-Chloro-2-[4-(4-ethoxycarbonylpiperazin-1-yl)phenyl]phenyl]-3-piperidyl]-5-(trifluoromethyl)pyrazole-4-carboxylic acid] | 3.0 | 10.4 |
| CC(C)OC(=O)N1CCN(c2ccc(-c3ccc(Cl)cc3N3CCCC(n4ncc(C(=O)O)c4C(F)(F)F)C3)cc2)CC1 (single isomer, unassigned) [Example 56, 1-[1-[5-Chloro-2-[4-(4-isopropoxycarbonylpiperazin-1-yl)phenyl]phenyl]-3-piperidyl]-5-(trifluoromethyl)pyrazole-4-carboxylic acid] | 3.0 | 18 |
| O=C(O)c1cnn(C2CCCN(c3cc(Cl)ccc3-c3ccc(N4CCN(C(=O)OC5CC5)CC4)cc3)C2)c1C(F)(F)F (single isomer, unassigned) [Example 57, 1-[1-[5-Chloro-2-[4-[4-(cyclopropoxycarbonyl)piperazin-1-yl]phenyl]phenyl]-3-piperidyl]-5-(trifluoromethyl)pyrazole-4-carboxylic acid] | 1.0 | 6.3 |
| CCCOC(=O)N1CCN(c2ccc(-c3ccc(Cl)cc3N3CCCC(n4ncc(C(=O)O)c4C(F)(F)F)C3)cc2)CC1 (single isomer, unassigned) [Example 58, 1-[1-[5-Chloro-2-[4-(4-propoxycarbonylpiperazin-1-yl)phenyl]phenyl]-3-piperidyl]-5-(trifluoromethyl)pyrazole-4-carboxylic acid] | 10.0 | 42.5 |
| CC(C)COC(=O)N1CCN(c2ccc(-c3ccc(Cl)cc3N3CCCC(n4ncc(C(=O)O)c4C(F)(F)F)C3)cc2)CC1 (single isomer, unassigned) [Example 59, 1-[1-[5-Chloro-2-[4-(4-isobutoxycarbonylpiperazin-1-yl)phenyl]phenyl]-3-piperidyl]-5-(trifluoromethyl)pyrazole-4-carboxylic acid] | 10.0 | 40.5 |
| O=C(O)c1cnn(C2CCCN(c3cc(Cl)ccc3-c3ccc(N4CCN(C(=O)OCC5CC5)CC4)cc3)C2)c1C(F)(F)F (single isomer, unassigned) [Example 60, 1-[1-[5-Chloro-2-[4-[4-(cyclopropylmethoxycarbonyl)piperazin-1-yl]phenyl]phenyl]-3-piperidyl]-5-(trifluoromethyl)pyrazole-4-carboxylic acid] | 10.0 | 47.5 |
| O=C(O)c1cnn(C2CCCN(c3cc(Cl)ccc3-c3ccc(N4CCN(C(=O)OCC5CCC5)CC4)cc3)C2)c1C(F)(F)F (single isomer, unassigned) [Example 61, 1-[1-[5-Chloro-2-[4-[4-(cyclobutylmethoxycarbonyl)piperazin-1-yl]phenyl]phenyl]-3-piperidyl]-5-(trifluoromethyl)pyrazole-4-carboxylic acid] | 3.0 | 21 |
| COCCOC(=O)N1CCN(c2ccc(-c3ccc(Cl)cc3N3CCCC(n4ncc(C(=O)O)c4C(F)(F)F)C3)cc2)CC1 (single isomer, unassigned) [Example 62, 1-[1-[5-Chloro-2-[4-[4-(2-methoxyethoxycarbonyl)piperazin-1-yl]phenyl]phenyl]-3-piperidyl]-5-(trifluoromethyl)pyrazole-4-carboxylic acid] | 10.0 | 57.5 |
| COCCCOC(=O)N1CCN(c2ccc(-c3ccc(Cl)cc3N3CCCC(n4ncc(C(=O)O)c4C(F)(F)F)C3)cc2)CC1 (single isomer, unassigned) [Example 63, 1-[1-[5-Chloro-2-[4-[4-(3-methoxypropoxycarbonyl)piperazin-1-yl]phenyl]phenyl]-3-piperidyl]-5-(trifluoromethyl)pyrazole-4-carboxylic acid] | 10.0 | 27 |
| O=C(O)c1cnn(C2CCCN(c3cc(Cl)ccc3-c3ccc(N4CCN(C(=O)OCCOC(F)(F)F)CC4)cc3)C2)c1C(F)(F)F (single isomer, unassigned) [Example 64, 1-[1-[5-Chloro-2-[4-[4-[2-(trifluoromethoxy)ethoxycarbonyl]piperazin-1-yl]phenyl]phenyl]-3-piperidyl]-5-(trifluoromethyl)pyrazole-4-carboxylic acid] | 30.0 | 84 |
| CNC(=O)N1CCN(c2ccc(-c3ccc(Cl)cc3N3CCCC(n4ncc(C(=O)O)c4C(F)(F)F)C3)cc2)CC1 (single isomer, unassigned) [Example 65, 1-[1-[5-Chloro-2-[4-[4-(methylcarbamoyl)piperazin-1-yl]phenyl]phenyl]-3-piperidyl]-5-(trifluoromethyl)pyrazole-4-carboxylic acid] | 10.0 | 56.5 |
| CCNC(=O)N1CCN(c2ccc(-c3ccc(Cl)cc3N3CCCC(n4ncc(C(=O)O)c4C(F)(F)F)C3)cc2)CC1 (single isomer, unassigned) [Example 66, 1-[1-[5-Chloro-2-[4-[4-(ethylcarbamoyl)piperazin-1-yl]phenyl]phenyl]-3-piperidyl]-5-(trifluoromethyl)pyrazole-4-carboxylic acid] | 3.0 | 28.5 |
| CS(=O)(=O)N1CCN(c2ccc(-c3ccc(Cl)cc3N3CCCC(n4ncc(C(=O)O)c4C(F)(F)F)C3)cc2)CC1 (single isomer, unassigned) [Example 67, 1-[1-[5-Chloro-2-[4-(4-methylsulfonylpiperazin-1-yl)phenyl]phenyl]-3-piperidyl]-5-(trifluoromethyl)pyrazole-4-carboxylic acid hydrochloride] | 30.0 | 45 |
| CCN1CCN(c2ccc(-c3ccc(Cl)cc3N3CCCC(n4ncc(C(=O)O)c4C(F)(F)F)C3)c(F)c2)CC1 (single isomer, unassigned) [Example 68, 1-[1-[5-Chloro-2-[4-(4-ethylpiperazin-1-yl)-2-fluoro-phenyl]phenyl]-3-piperidyl]-5-(trifluoromethyl)pyrazole-4-carboxylic acid hydrochloride] | 3.0 | 36.5 |
| O=C(O)c1cnn(C2CCCN(c3cc(Cl)ccc3-c3ccc(N4CCN(CC5CC5)CC4)cc3F)C2)c1C(F)(F)F (single isomer, unassigned) [Example 69, 1-[1-[5-Chloro-2-[4-[4-(cyclopropylmethyl)piperazin-1-yl]-2-fluoro-phenyl]phenyl]-3-piperidyl]-5-(trifluoromethyl)pyrazole-4-carboxylic acid hydrochloride] | 3.0 | 13.8 |
| CCN1CCN(c2ccc(-c3ccc(Cl)cc3N3CCCC(n4ncc(C(=O)O)c4C(F)(F)F)C3)cc2F)CC1 (single isomer, unassigned) [Example 70, 1-[1-[5-Chloro-2-[4-(4-ethylpiperazin-1-yl)-3-fluoro-phenyl]phenyl]-3-piperidyl]-5-(trifluoromethyl)pyrazole-4-carboxylic acid] | 30.0 | 99 |
| O=C(O)c1cnn(C2CCCN(c3cc(Cl)ccc3-c3ccc(N4CCN(CC5CC5)CC4)c(F)c3)C2)c1C(F)(F)F (single isomer, unassigned) [Example 71, 1-[1-[5-Chloro-2-[4-[4-(cyclopropylmethyl)piperazin-1-yl]-3-fluoro-phenyl]phenyl]-3-piperidyl]-5-(trifluoromethyl)pyrazole-4-carboxylic acid hydrochloride] | 10.0 | 69.5 |
